What was measured:
Rhodococcus ruber SC1 = assay: Growth of Rhodococcus ruber SC1 on cyclic ketones as sole carbon and energy source; assay type: cell-based; conditions: for Growth of Rhodococcus ruber SC1: cyclic ketone as sole carbon and energy source
Experimental: Synthetic S12 medium was used to establish enrichment. S12 medium contains the following: 10 mM ammonium sulfate, 50 mM potassium phosphate buffer (pH 7.0), 2 mM MgCl2, 0.7 mM CaCl2, 50 μM MnCl2, 1 μM FeCl3, 1 μM […], 1.72 μM CuSO4, 2.53 μM CoCl2, 2.42 μM […], and 0.0001% FeSO4. The carbon sources were added directly to the S12 medium and the bacteria were grown in sealed culture flasks.
S12 agar was used to test isolates that utilize compounds as the sole source of carbon and energy. S12 agar was prepared by adding 1.5% Noble agar (DIFCO) to S12 medium. Bacteria growing on S12 agar were supplied with volatile compounds such as cyclododecanone by sprinkling solids of the volatile compound on the interior of the petri dish lid or 5 μl of other volatile liquid as vapor. The petri dish was sealed with parafilm and incubated with the lid on the bottom.
Rhodococcus ruber SC1 isolated from cyclododecanone (C12 cyclic ketone) enrichment culture was also tested for growth on cyclic ketones of different carbon numbers as sole carbon and energy source (Table 3). It grows well on cyclopentadecanone (C15 cyclic ketone), cyclotridecanone (C13 cyclic ketone), cyclododecanone (C12 cyclic ketone) and cycloundecanone (C11 cyclic ketone).

[1] = system: monooxygenase and esterase on the S8C; assay: Production of different chain length hydroxy acids from cyclic ketones by recombinant E. coli cosmid clone S8C (GC/MS); assay type: cell-based, Escherichia coli; conditions: cyclic ketone substrate 250 mg/L
Experimental: Transformed XL1-Blue MR cells were grown in M9 medium with 0.4% glucose as sole carbon source. Substrate for conversion was added at early log phase (OD=0.2) and cells were allowed to grow at 30° C. for 20 additional hours. Cells were then frozen and thawed once, centrifuged, and supernatant was filtered through 0.2 μm filters. Filtrate was prepared for GC/MS analysis as described below.
Filtrate was first acidified to pH 2 using concentrated HCl. The acidified sample was extracted twice with methylene chloride or ethyl acetate. The extracts were combined and dried by adding anhydrous magnesium sulfate. Magnesium sulfate was then removed by filteration using Whatman 3MM filter paper and the remaining solvent in the filtrate was evaporated under a gentle stream of nitrogen. The dried residues were resuspended in 0.5 mL of methylene chloride as underivatized samples or derivatized with 0.5 mL of BSTFA [bis (trimethylsilyl) trifluoroacetamide] silylation reagent (SUPELCO, Bellefonte, Pa.). The GC/MS analysis was performed using a Hewlett Packard 5989B MS Engine GC/MS instrument. Samples were injected onto a 30 meter MDN-5S capillary column (SUPELCO, 0.5 μm film thickness) for separation. GC/MS analysis was conducted using electron impact ionization (70 eV).
Example 8 explores whether the cyclic substrates could be expanded to cyclic ketones of different chain length and whether corresponding hydroxy acids could be produced. S8C was grown as described above except that different cyclic ketones were added. Cyclohexanone (C6), cycloheptanone (C7), cyclooctanone (C8), cyclodecanone (C10), cycloundecanone (C11), cyclododecanone (C12), cyclotridecanone (C13) and cyclopentadecanone (C15) were added as substrates at 250 mg/L concentration. Identification of the corresponding hydroxy acids produced was performed by GC/MS analysis as described above. Large amount of corresponding hydroxy acids were detected from S8C grown in the presence of C11, C12 and C13 cyclic ketones. Medium level of 15-hydroxy acid was detected from C15 cyclic ketone grown cells. Small amount of hydroxy acids was detected from cells grown on C6 and C10 cyclic ketones. […] The substrate range of the monooxygenase and esterase on the S8C appeared to favor long chain cyclic ketones (C>10). This correlated well with the growth substrate range ([…]) of the Rhodococcus ruber SC1. The ability of Rhodococcus ruber SC1 to grow on cyclic ketones of C11-C15 was likely due to the relatively broad substrate specificity of the single set of monooxygenase and esterase encoded on S8C clone (Table 3). It is possible that mixture of the large cyclic ketones may be used as substrates in a biotransformation to produce a mixture of long chain hydroxy acids or diacids for certain applications.

| SMILES | Growth of Rhodococcus ruber SC1 on cyclic ketone (in words) (Rhodococcus ruber SC1) | Growth of Rhodococcus ruber SC1 (Rhodococcus ruber SC1) | Corresponding Hydroxy Acid Produced by E. coli Cosmids [1] | Corresponding hydroxy acid detected (in words) [1] |
| --- | --- | --- | --- | --- |
| O=C1CCCCCC1 [C7, cycloheptanone] | does not grow | − | − | No hydroxy acid was detected |
| O=C1CCCCCCCCCC1 [C11, cycloundecanone] | grows well | + | ++ | Large amount |
| O=C1CCCCC1 [C6, cyclohexanone] | does not grow | − | +/− | Small amount |
| O=C1CCCCCCCCCCCCCC1 [C15, cyclopentadecanone] | grows well | + | + | Medium level |
| O=C1CCCCCCCCCCCC1 [C13, cyclotridecanone] | grows well | + | ++ | Large amount |
| O=C1CCCCCCCCCCC1 [C12, cyclododecanone] | grows well | + | ++ | Large amount |
| O=C1CCCCCCCCC1 [C10, cyclodecanone] | grows moderately well | + | +/− | Small amount |
| O=C1CCCCCCC1 [C8, cyclooctanone] | does not grow | − | − | No hydroxy acid was detected |
